This is an account of results in patent US20170367394A1, “PROCESS FOR INCREASING THE STABILITY OF A COMPOSITION COMPRISING POLYUNSATURATED OMEGA-6 FATTY ACIDS” (Evonik Degussa GmbH, priority 2014, published 2017).

A value given as a limit tells only on which side of the number the result lay.

What all share (format): physicochemical
A short description of data set [1]: Peroxide Value (PV, primary oxidation products) according to Ph. Eur. 2.5.5, before and after storage at 50° C. exposed to air. As for the experimental part: An exemplary procedure for determining the Peroxide Value (PV) of a sample is performed as follows:
Peroxide value=(S−B)*N thiosulfate*1000/weight of sample
(§1) Primary oxidation products (hydroperoxides at double bonds) were quantified by determining the Peroxide Value (PV) according to Ph. Eur. 2.5.5 (01/2008:20505). Secondary oxidation products (carbonyl compounds) were quantified by determining the Anisidine Value (AV) according to Ph. Eur. 2.5.36 (01/2008:20536).
(§2) 30 g each of the liquid ethyl arachidonic acid glycerin ester and the gamma-linolenic acid ethyl ester used in experiments 1 and 2 as well as of the arachidonic acids and the gamma-linolenic acid obtained in experiments 1 and 2 were filled into 500 ml Schott Duran glass bottles.
(§3) About 30 g each of the solid lysine-salts ARA-Lys and GLA-Lys obtained in experiments 3 and 4 were filled Schott Duran glass bottles.
(§4) All of the bottles were placed together with opened lids in a drying oven with an opened ventilation valve at 50° C. and stored in the dark under these conditions for 81 days.

Data set [2] is described as follows: Anisidine Value (AV, secondary oxidation products) according to Ph. Eur. 2.5.36, before and after storage at 50° C. exposed to air. The note with it: for Anisidine Value: as obtained / as supplied (experiments 1-4). As for the experimental part:
An exemplary procedure for determining the Anisidine Value (AV) of a sample is performed as follows:
The anisidine value is defined as 100 times the optical density measured in a 1 cm cell of a solution containing 1 g of the substance to be examined in 100 ml of a mixture of solvents and reagents according to the following method. Carry out the operations as rapidly as possible, avoiding exposure to actinic light.
Test solution (a): Dissolve 0.500 g of the substance to be examined in trimethylpentane and dilute to 25.0 ml with the same solvent.
Test solution (b): To 5.0 ml of test solution (a) add 1.0 ml of a 2.5 g/I solution of p-anisidine in glacial acetic acid, shake and store protected from light.
Reference solution: To 5.0 ml of trimethylpentane add 1.0 ml of a 2.5 g/I solution of p-anisidine in glacial acetic acid, shake and store protected from light. Measure the absorbance of test solution (a) at the maximum at 350 nm using trimethylpentane as the compensation liquid. Measure the absorbance of test solution (b) at 350 nm exactly 10 min after its preparation, using the reference solution as the compensation liquid. Calculate the anisidine value (AV) from the expression:
as §1, §2, §3, §4

Data set [3] in a line: Oligomer content by gel-chromatography (GPC, RI detector). To be noted: as obtained. How it is done: Oligomeric PUFA constituents as well as their derivatives (collectively referred to as oligomer content) were quantified by gel-chromatographic means (GPC, styroldivinylbenzene-phase with tetrahydrofuran containing trifluoroacetic acid used as eluent). A refractive index (RI) detector was used for detection. Due to the fact that specific response factors of the constituents of the samples were unknown, proportions were calculated based upon fractional proportions of the total area of chromatograms.

[4] abbreviates: t = 81 days, open bottles, 50° C., exposed to air, in the dark.

Regarding `CCCCC/C=C\C/C=C\C/C=C\C/C=C\CCCC(=O)O` [ARA-OH, all-cis-5,8,11,14-eicosatetraenoic acid], in data set [1] (as obtained (experiments 1-4)), the “Peroxide Value” stood at 7.2 mmol/kg. Also, the “Peroxide Value (PV)” value in data set [1] (t = 0, before storage) came to 7.2 mmol/kg; in data set [1] (setting [4]) it was 5.8 mmol/kg. The Anisidine Value in data set [2] was 4.2. The “Anisidine Value (AV)” value amounted to 4.2 A/g in data set [2] (t = 0, before storage) and 211 A/g in data set [2] (setting [4]).
In turn, `CCCCC/C=C\C/C=C\C/C=C\CCCCC(=O)OCC` [GLA-OEt, gamma-linolenic acid ethyl ester] returned a Peroxide Value in data set [1] (commercially available starting material as supplied) of 52.1 mmol/kg. Moreover, the “Peroxide Value (PV)” value in data set [1] (t = 0, before storage) is reported as 52.1 mmol/kg; in data set [1] (setting [4]) it was 86.3 mmol/kg. Also, the Anisidine Value in data set [2] was found to be 19.1. The “Anisidine Value (AV)” value came to 19.1 A/g in data set [2] (t = 0, before storage) and 1237 A/g in data set [2] (setting [4]).
Regarding `CCCCC/C=C\C/C=C\C/C=C\CCCCC(=O)O` [GLA-OH, gamma-linolenic acid], the “Peroxide Value” in data set [1] (as obtained (experiments 1-4)) stood at 5.6 mmol/kg. In addition, the “Peroxide Value (PV)” value is given as 5.6 mmol/kg in data set [1] (t = 0, before storage) and 1.3 mmol/kg in data set [1] (setting [4]). The compound also yielded an Anisidine Value in data set [2] of 7.6. For the same compound, the “Anisidine Value (AV)” value in data set [2] (t = 0, before storage) came out at 7.6 A/g; in data set [2] (setting [4]) it was 137 A/g. In data set [3], the Oligomer content is given as 0.3 area-%.
Consider “Arachidonic acid-L-Lysine Salt [ARA-Lys]”, for which, in data set [1] (as obtained (experiments 1-4)), the “Peroxide Value” was less than 1 mmol/kg. Also, the “Peroxide Value (PV)” value in data set [1] (t = 0, before storage) is recorded as less than 1 mmol/kg; in data set [1] (setting [4]) it was less than 1 mmol/kg. The same compound returned an Anisidine Value in data set [2] of 1. The “Anisidine Value (AV)” value in data set [2] (t = 0, before storage) was 1 A/g; in data set [2] (setting [4]), less than 1 A/g. In data set [3], this compound displayed an Oligomer content of 1.1 area-%.
As to “Gamma-Linolenic acid-L-Lysine Salt [GLA-Lys]”, the “Peroxide Value” in data set [1] (as obtained (experiments 1-4)) was determined as 1.0 mmol/kg. The “Peroxide Value (PV)” value was 1.0 mmol/kg in data set [1] (t = 0, before storage) and less than 1 mmol/kg in data set [1] (setting [4]). Also, the Anisidine Value in data set [2] is 5.4. For the same compound, the “Anisidine Value (AV)” value in data set [2] (t = 0, before storage) was 5.4 A/g; in data set [2] (setting [4]) it was less than 1 A/g. Besides, the Oligomer content in data set [3] was determined as 0.6 area-%.
